In patent US12365696B2, “Small-molecule focal adhesion kinase (FAK) inhibitors” (DANA-FARBER CANCER INSTITUTE, INC., priority 2019, dated 2025):

Assays:
SLK = SLK (Homo sapiens (Human), UniProt Q9H2G2); experiment: KINOMEscan; type: binding; conditions: 10000 nM, read-out: Percent Control
SNRK = SNRK (Homo sapiens (Human), UniProt Q9NRH2); experiment: KINOMEscan; type: binding; conditions: 10000 nM, read-out: Percent Control
NEK4 = NEK4 (Homo sapiens (Human), UniProt P51957); experiment: KINOMEscan; type: binding; conditions: NEK4, 10000 nM; read-out: Percent Control
Sequence of NEK4 (P51957 whole entry): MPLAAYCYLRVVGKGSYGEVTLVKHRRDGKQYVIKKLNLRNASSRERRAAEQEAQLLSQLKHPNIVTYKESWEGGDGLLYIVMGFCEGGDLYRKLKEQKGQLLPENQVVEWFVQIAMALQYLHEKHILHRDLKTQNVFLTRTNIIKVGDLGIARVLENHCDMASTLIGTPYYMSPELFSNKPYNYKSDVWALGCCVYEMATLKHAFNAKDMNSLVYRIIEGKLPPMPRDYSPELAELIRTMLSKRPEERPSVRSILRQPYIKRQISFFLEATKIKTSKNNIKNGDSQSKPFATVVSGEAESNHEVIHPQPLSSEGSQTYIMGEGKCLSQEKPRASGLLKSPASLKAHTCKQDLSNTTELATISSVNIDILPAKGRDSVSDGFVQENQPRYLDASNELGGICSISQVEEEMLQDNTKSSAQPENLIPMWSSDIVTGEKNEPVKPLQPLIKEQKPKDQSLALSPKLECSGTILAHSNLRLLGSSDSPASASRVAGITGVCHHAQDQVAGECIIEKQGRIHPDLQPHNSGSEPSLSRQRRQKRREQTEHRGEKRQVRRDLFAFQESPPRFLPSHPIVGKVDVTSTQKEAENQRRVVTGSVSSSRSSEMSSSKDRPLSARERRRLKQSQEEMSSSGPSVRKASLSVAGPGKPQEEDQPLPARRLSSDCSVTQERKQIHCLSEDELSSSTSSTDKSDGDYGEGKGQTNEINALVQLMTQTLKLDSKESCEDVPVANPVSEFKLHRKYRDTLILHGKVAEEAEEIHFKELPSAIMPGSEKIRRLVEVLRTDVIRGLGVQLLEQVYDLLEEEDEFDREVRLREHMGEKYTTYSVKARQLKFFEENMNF

p38-alpha = p38-alpha (Homo sapiens (Human), UniProt Q16539); experiment: KINOMEscan; type: binding; conditions: 10000 nM, read-out: Percent Control
Sequence of p38-alpha (Q16539 whole entry): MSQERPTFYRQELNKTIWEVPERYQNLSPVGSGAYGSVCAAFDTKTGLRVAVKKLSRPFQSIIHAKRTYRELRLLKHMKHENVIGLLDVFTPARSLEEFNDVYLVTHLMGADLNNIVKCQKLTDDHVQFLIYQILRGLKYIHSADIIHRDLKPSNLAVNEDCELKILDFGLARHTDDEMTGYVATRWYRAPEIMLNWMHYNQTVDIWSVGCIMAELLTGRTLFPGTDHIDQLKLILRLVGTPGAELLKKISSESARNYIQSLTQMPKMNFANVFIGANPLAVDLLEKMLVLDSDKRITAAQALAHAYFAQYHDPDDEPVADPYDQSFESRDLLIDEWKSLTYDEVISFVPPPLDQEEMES

MDA-MB-231 cells = experiment: ultra-low adherent 3D-spheroid suspension cell viability (3D Cell Titer-Glo), 120 hours; type: cell-based; conditions: Homo sapiens
Experimental: For ultra-low adherent 3D-spheroid suspensions, MDA-MB-231 cells were plated in 384-well format in media containing 10% Matrigel® and allowed to form spheroids overnight. Cells were treated with indicated molecules from compound stock plates using a JANUS® Workstation pin tool for 120 hours. To measure cell viability, 3D Cell Titer-Glo® was added to wells for 15 minutes at room temperature and luminescence was measured on an EnVision™ 2104 Multilabel Plate Reader.

EPHB3 = EPHB3 (Homo sapiens (Human), UniProt P54753); experiment: KINOMEscan; type: binding; conditions: EPHB3, 10000 nM; read-out: Percent Control
Sequence of EPHB3 (P54753 34-998): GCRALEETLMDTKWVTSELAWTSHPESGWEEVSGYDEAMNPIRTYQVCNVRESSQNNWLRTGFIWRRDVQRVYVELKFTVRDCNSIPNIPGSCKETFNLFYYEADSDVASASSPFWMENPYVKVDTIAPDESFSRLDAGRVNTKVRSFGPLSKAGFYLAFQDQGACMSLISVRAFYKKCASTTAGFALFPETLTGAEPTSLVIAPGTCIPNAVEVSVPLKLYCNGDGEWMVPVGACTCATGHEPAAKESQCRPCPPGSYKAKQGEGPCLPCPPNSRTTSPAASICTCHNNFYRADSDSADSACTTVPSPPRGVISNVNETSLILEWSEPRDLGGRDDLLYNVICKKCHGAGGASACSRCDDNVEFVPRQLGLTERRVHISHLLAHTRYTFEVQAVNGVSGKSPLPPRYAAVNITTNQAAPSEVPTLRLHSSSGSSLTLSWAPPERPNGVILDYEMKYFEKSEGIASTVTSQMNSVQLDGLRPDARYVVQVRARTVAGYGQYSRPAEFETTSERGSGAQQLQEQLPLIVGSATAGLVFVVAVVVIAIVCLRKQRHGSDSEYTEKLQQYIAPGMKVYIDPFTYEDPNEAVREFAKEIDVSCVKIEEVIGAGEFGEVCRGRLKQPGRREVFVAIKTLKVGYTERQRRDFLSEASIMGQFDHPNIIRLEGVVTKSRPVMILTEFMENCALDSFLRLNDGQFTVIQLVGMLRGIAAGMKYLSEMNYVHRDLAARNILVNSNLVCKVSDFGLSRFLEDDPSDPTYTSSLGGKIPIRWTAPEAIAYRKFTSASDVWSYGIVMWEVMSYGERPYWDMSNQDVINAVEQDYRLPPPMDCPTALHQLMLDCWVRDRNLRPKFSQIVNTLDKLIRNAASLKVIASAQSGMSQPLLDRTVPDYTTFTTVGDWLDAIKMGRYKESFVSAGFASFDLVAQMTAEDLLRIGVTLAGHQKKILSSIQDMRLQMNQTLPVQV

AAK1 = AAK1 (Homo sapiens (Human), UniProt Q2M2I8); experiment: KINOMEscan; type: binding; conditions: AAK1, 10000 nM; read-out: Percent Control
ERN1 = ERN1 (Homo sapiens (Human), UniProt O75460); experiment: KINOMEscan; type: binding; conditions: ERN1, 10000 nM; read-out: Percent Control
PKN1 = PKN1 (Homo sapiens (Human), UniProt Q16512); experiment: KINOMEscan; type: binding; conditions: PKN1, 10000 nM; read-out: Percent Control
Sequence of PKN1 (Q16512 whole entry): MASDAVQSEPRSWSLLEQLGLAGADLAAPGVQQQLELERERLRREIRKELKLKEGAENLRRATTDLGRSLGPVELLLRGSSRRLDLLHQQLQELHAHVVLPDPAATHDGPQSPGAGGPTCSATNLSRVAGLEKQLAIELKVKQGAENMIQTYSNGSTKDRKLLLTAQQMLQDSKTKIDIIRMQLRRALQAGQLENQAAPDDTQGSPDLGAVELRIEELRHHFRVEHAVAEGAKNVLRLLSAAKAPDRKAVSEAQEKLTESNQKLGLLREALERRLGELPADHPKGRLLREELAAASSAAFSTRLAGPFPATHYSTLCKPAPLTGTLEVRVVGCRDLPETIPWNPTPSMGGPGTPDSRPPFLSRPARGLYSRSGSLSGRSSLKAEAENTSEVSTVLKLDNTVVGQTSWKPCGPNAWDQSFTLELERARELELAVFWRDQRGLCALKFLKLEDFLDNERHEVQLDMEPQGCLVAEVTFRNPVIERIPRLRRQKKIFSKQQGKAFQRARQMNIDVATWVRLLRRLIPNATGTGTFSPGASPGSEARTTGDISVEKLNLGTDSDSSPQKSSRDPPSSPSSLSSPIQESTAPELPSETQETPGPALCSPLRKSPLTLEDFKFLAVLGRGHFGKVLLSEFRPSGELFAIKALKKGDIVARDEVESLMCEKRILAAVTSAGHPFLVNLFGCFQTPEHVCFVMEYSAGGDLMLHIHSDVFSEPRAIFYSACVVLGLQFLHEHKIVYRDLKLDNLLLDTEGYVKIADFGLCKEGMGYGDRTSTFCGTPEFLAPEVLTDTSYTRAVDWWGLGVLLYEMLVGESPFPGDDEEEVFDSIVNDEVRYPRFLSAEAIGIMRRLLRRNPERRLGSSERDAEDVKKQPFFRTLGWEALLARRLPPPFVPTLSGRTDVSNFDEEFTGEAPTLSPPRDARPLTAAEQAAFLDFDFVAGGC

CIT = CIT (Homo sapiens (Human), UniProt O14578); experiment: KINOMEscan; type: binding; conditions: 10000 nM, read-out: Percent Control
DCLK2 = DCLK2 (Homo sapiens (Human), UniProt Q8N568); experiment: Biochemical IC50 (Invitrogen) of off-targets
TNK1 = TNK1 (Homo sapiens (Human), UniProt Q13470); experiment: Biochemical IC50 (Invitrogen) of off-targets
Sequence of TNK1 (Q13470 whole entry): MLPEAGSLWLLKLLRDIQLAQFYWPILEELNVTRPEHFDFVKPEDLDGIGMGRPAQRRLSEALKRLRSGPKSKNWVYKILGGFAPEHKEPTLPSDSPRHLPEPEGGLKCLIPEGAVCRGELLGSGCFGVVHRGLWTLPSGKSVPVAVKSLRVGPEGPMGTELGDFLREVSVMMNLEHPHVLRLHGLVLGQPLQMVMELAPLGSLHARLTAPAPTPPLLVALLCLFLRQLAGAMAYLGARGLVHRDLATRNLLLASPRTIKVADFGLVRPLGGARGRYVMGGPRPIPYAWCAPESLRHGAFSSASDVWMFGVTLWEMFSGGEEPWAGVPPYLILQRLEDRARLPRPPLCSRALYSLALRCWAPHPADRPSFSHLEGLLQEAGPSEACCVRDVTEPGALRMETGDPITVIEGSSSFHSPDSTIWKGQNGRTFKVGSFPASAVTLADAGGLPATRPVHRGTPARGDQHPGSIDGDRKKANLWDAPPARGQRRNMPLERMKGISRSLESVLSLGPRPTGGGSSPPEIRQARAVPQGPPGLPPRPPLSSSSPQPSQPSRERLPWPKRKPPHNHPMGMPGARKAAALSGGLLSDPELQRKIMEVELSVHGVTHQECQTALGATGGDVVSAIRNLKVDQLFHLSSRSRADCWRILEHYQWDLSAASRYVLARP

PLK1 = PLK1 (Homo sapiens (Human), UniProt P53350); experiment: Biochemical IC50 (Invitrogen) of off-targets
STK33 = STK33 (Homo sapiens (Human), UniProt Q9BYT3); experiment: Biochemical IC50 (Invitrogen) of off-targets
DCLK1 = DCLK1 (Homo sapiens (Human), UniProt O15075); experiment: Biochemical IC50 (Invitrogen) of off-targets

Sequence of SLK (Q9H2G2 whole entry): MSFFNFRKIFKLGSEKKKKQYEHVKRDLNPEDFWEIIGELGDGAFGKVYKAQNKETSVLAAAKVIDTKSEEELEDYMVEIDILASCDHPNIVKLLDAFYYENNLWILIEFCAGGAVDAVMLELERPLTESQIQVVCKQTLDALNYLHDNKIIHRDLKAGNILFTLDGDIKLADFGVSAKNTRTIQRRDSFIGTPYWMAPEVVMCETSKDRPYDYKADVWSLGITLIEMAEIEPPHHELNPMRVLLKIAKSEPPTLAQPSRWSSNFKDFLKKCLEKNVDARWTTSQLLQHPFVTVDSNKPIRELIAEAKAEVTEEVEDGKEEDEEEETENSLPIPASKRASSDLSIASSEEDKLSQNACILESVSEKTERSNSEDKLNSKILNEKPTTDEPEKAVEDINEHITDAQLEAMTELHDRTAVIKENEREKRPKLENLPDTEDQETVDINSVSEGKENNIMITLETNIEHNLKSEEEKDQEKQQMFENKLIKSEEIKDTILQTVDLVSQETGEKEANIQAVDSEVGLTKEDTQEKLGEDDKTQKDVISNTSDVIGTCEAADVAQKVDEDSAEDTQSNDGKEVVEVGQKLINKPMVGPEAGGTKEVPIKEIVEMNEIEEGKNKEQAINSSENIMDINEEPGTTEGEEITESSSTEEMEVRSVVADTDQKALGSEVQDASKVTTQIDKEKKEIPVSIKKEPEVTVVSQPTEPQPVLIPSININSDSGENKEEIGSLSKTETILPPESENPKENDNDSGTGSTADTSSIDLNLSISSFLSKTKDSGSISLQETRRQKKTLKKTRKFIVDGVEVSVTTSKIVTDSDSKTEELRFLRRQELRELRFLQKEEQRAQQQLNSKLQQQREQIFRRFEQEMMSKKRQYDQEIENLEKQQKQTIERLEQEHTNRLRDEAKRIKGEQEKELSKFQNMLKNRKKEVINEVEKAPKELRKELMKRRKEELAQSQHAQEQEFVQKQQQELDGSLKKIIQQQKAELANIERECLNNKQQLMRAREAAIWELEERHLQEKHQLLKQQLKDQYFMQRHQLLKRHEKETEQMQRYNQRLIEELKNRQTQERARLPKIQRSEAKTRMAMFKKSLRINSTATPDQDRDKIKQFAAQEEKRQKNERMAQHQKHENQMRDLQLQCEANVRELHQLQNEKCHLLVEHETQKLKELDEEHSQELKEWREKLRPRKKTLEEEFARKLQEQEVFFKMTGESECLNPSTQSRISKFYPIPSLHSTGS

Structure (SMILES): COc1cc(N2CCC(N3CCN(C)CC3)CC2)ccc1Nc1ncc2c(n1)N(C)c1sc(C)nc1C(=O)N2 [Compound 3, 6-((2-methoxy-4-(4-(4-methylpiperazin-1-yl)piperidin-1-yl)phenyl)amino)-2,4-dimethyl-4,9-dihydro-10H-pyrimido[5,4-b]thiazolo[5,4-e][1,4]diazepin-10-one]
- remaining binding at 10 µM (SLK): 70%
- remaining binding at 10 µM (SNRK): 94%
- remaining binding at 10 µM (NEK4): 100%
- remaining binding at 10 µM (p38-alpha): 75%
- IC50 (MDA-MB-231 cells): 6.8 µM
- remaining binding at 10 µM (EPHB3): 70%
- remaining binding at 10 µM (AAK1): 48%
- remaining binding at 10 µM (ERN1): 93%
- remaining binding at 10 µM (PKN1): 69%
- remaining binding at 10 µM (CIT): 73%

Structure (SMILES): COc1cc(N2CCC(N3CCN(C)CC3)CC2)ccc1Nc1ncc2c(n1)N(C)c1sc(C)nc1C(=O)N2C [Compound 5, 6-((2-methoxy-4-(4-(4-methylpiperazin-1-yl)piperidin-1-yl)phenyl)amino)-2,4,9-trimethyl-4,9-dihydro-10H-pyrimido[5,4-b]thiazolo[5,4-e][1,4]diazepin-10-one]
- remaining binding at 10 µM (SLK): 100%
- remaining binding at 10 µM (SNRK): 100%
- IC50 (DCLK2): 3.12 µM
- remaining binding at 10 µM (NEK4): 100%
- IC50 (TNK1): 3.17 µM
- remaining binding at 10 µM (p38-alpha): 93%
- IC50 (PLK1): 8.28 µM
- remaining binding at 10 µM (EPHB3): 100%
- IC50 (STK33): 2.13 µM
- remaining binding at 10 µM (ERN1): 88%
- remaining binding at 10 µM (PKN1): 100%
- remaining binding at 10 µM (CIT): 98%
- IC50 (DCLK1): 6.5 µM
